Laboratory results reported in patent US20110183978A1, “Phenylpyri(mi)dinylazoles” (Bayer CropScience AG, priority 2009, published 2011).
Where two headings read alike, the source gives them in different places.

Legend:
Peronospora parasitica = test: Example A: in vivo test on Peronospora parasitica (downy mildew on white cabbage); settings: Hyaloperonospora parasitica, 120 h, cabbage plants sprayed 24 hours before inoculation, scored after 5 days, read-out: % Wirkungsgrad
Protocol: In Vivo Test on Peronospora Parasitica (Downy Mildew on White Cabbage) An aqueous suspension of the active substance was prepared by homogenization of a mixture of acetone/Tween (dispersant)/dimethyl sulphoxide (DMSO) and subsequent dilution with water to the desired concentration. Cabbage plants (variety: Eminence) are sown in cultivation dishes on a peat-pozzolanic earth substrate (50/50) at 18-20° C. and sprayed at the cotyledon stage with the aqueous suspension described above. As a control, plants are sprayed with an aqueous solution with no active substance. After 24 hours, the plants are inoculated by spraying with an aqueous suspension of Peronospora parasitica spores (50,000 spores per ml). The spores are derived from infected plants. The inoculated cabbage plants are incubated for 5 days at ca. 20° C. in a moist atmosphere. After 5 days, they are scored in comparison with the control plants.

Botrytis cinerea [1] = test: Example B: in vivo test on Botrytis cinerea (grey mould on cucumbers); settings: cucumber plants sprayed 24 hours before inoculation, scored after 5-7 days, read-out: % Wirkungsgrad
Protocol: In Vivo Test on Botrytis Cinerea (Grey Mould on Cucumbers) An aqueous suspension of the active substance was prepared by homogenization of a mixture of acetone/Tween/dimethyl sulphoxide and subsequent dilution with water to the desired concentration. Cucumber plants (variety: Vert petit de Paris) are sown in cultivation dishes on a peat-pozzolanic earth substrate (50/50) at 18-20° C. and sprayed at the cotyledon stage Z11 with the aqueous suspension described above. As a control, plants are sprayed with an aqueous solution with no active substance. […] The spores are derived from a 15 day-old culture which are suspended in the following nutrient solution: • 20 g/l gelatine • 50 g/l D-fructose • 2 g/l NH4NO3 • 1 g/l KH2PO4 The inoculated cucumber plants are kept for 5-7 days in a climatic chamber at […] After 5-7 days they are scored in comparison with the control plants.

Sphaerotheca fuliginea [2] = test: Example D: in vivo test on Sphaerotheca fuliginea (powdery mildew on cucumber); settings: Podosphaera fuliginea, 288 h, cucumber plants sprayed 24 hours before inoculation, scored after 12 days, read-out: % Wirkungsgrad
Procedure, shortened: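 Scoring took place 12 days after spore inoculation (100,000 spores/ml, at ca. 20/25° C., 60/70% RH) and was made against plants sprayed without active substance. Inoculation followed by 24 hours a spray of water-diluted acetone/Tween/DMSO compound suspension onto Z10 cotyledon-stage cucumbers.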

Puccinia recondita = test: Example F: in vivo test on Puccinia recondita (wheat brown rust); settings: 240 h, wheat plants sprayed 24 hours before inoculation, scored after 10 days, read-out: % Wirkungsgrad
Protocol: In Vivo Test on Puccinia Recondita (Wheat Brown Rust) An aqueous suspension of the active substance was prepared by homogenization of a mixture of acetone/Tween/dimethyl sulphoxide and subsequent dilution with water to the desired concentration. Wheat plants (variety: Scipion) are sown in cultivation dishes on a peat-pozzolanic earth substrate (50/50) at 12° C. and sprayed at the first-leaf stage (10 cm size) with the aqueous suspension described above. As a control, plants are sprayed with an aqueous solution with no active substance. After 24 hours the plants are inoculated by spraying with an aqueous suspension of Puccinia recondita spores (100,000 spores per ml). The spores are derived from a 10 day-old infected wheat crop and are suspended in water with 2.5 ml/l Tween. […] After 10 days they are scored in comparison with the control plants.

[3] = test system: Mycosphaerella graminicola; test: Example G: in vivo test on Mycosphaerella graminicola (wheat leaf blotch disease); settings: Zymoseptoria tritici, wheat plants sprayed 24 hours before inoculation, scored after 21 to 28 days, read-out: % Wirkungsgrad
Procedure, shortened: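 Scipion wheat at first-leaf stage (10 cm) was sprayed with aqueous active-substance suspension, then inoculated 24 hours later with Mycosphaerella graminicola spores (500,000 spores per ml) from 7 day-old culture. Disease was scored after 21 to 28 days against untreated sprayed controls.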

Fusarium proliferatum = test: Example I: production of fumonisin FB1 by Fusarium proliferatum (microtitre plates); format: cell-based; settings: 120 h
physchem = settings: LogPA (logP of the stated pure compound or, in a mixture, of the main isomer, 1-substituted 3-aryl-1H-pyrazole)
Pyrenophora teres = test: Example E: in vivo test on Pyrenophora teres (barley net blotch disease); settings: Pyrenophora teres, 288 h, barley plants sprayed 24 hours before inoculation, scored after 12 days, read-out: % Wirkungsgrad
Protocol: In Vivo Test on Pyrenophora Teres (Barley Net Blotch Disease) An aqueous suspension of the active substance was prepared by homogenization of a mixture of acetone/Tween/dimethyl sulphoxide and subsequent dilution with water to the desired concentration. Barley plants (variety: Plaisant) are sown in cultivation dishes on a peat-pozzolanic earth substrate (50/50) at 12° C. and sprayed at the first-leaf stage (10 cm size) with the aqueous suspension described above. As a control, plants are sprayed with an aqueous solution with no active substance. After 24 hours the plants are inoculated by spraying with an aqueous suspension of Pyrenophora teres spores (12,000 spores per ml). The spores are derived from a 12 day-old culture. […] After 12 days they are scored in comparison with the control plants.

Sphaerotheca fuliginea [4] = test: Example L: in vivo test on Sphaerotheca fuliginea (powdery mildew on cucumber/protective); settings: Podosphaera fuliginea, 168 h, cucumber, protective, assessment 7 days after inoculation, read-out: % Wirkungsgrad
Procedure, shortened: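 Young cucumber plants sprayed at stated dosage with compound in DMF/alkylaryl polyglycol ether emulsifier diluted in water; inoculated with S. fuliginea spores one day later. Kept in greenhouse at 70% relative humidity, 23° C; protective activity assessed 7 days after inoculation.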

Alternaria solani = test: Example M: in vivo test on Alternaria solani (leaf blotch disease/tomato/protective); settings: 168 h, tomato, protective, 500 ppm active substance, assessed 7 days after inoculation, read-out: % Wirkungsgrad (activity level)
Procedure, shortened: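 Alternaria solani infection on tomato scored 7 days post-inoculation. Before inoculation, young plants received a protective spray at the stated application dose; formulation was compound mixed with N,N-dimethylformamide and emulsifier, water-diluted.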

Pyricularia oryzae = test: whole plant or invertebrate; format: in vivo; settings: 120 h, read-out: % Activity level
Rhizoctonia solani = test: Example W: in vivo test on Rhizoctonia solani (sheath blight in rice/protective); settings: 96 h, rice, protective, 250 ppm active substance, assessed 4 days after inoculation, read-out: % Activity level
Protocol: Solvent: 28.5 parts by weight acetone Emulsifier: 1.5 parts by weight alkylaryl polyglycol ethers For the preparation of a suitable active substance preparation, 1 part by weight of active substance is mixed with the stated quantities of solvent and emulsifier and the concentrate is diluted to the desired concentration with water. For the testing for protective activity, young rice plants are sprayed with the active substance preparation at the stated application dosage. One day after the treatment, the plants are inoculated with hyphae of Rhizoctonia solani. […] 4 days after the inoculation, the assessment takes place.

Plasmopara viticola = test: Example N: in vivo test on Plasmopara viticola (downy mildew, vine/protective); settings: 144 h, vine, protective, assessment 6 days after inoculation, read-out: % Wirkungsgrad
Procedure, shortened: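 Assessment of downy mildew on vines took place 6 days post-inoculation, after 1 day of moist incubation. Before infection, the young plants received a protective spray of compound emulsified with alkylaryl polyglycol ethers and diluted with water to the stated application rate.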

Venturia inaequalis = test: Example O: in vivo test on Venturia inaequalis (apple scab/protective); settings: 240 h, protective, assessment 10 days after inoculation, read-out: % Wirkungsgrad
Procedure, shortened: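 Young plants received a preventive spray of compound formulated as an emulsifier-containing aqueous dilution at the given application rate, then were inoculated with apple scab fungus. Disease was scored 10 days post-inoculation.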

Botrytis cinerea [5] = test: Example P: in vivo test on Botrytis cinerea (gray mould on bean/protective); settings: 48 h, bean, protective, 250 ppm active substance, assessed 2 days after inoculation, read-out: % Wirkungsgrad (activity level)
Procedure, shortened: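 Infection blotch size on leaves was scored 2 days after placing 2 Botrytis-colonised agar pieces per leaf. Inoculation followed drying of a protective spray applied to young plants at the stated dosage. Spray was prepared by diluting compound with solvent and alkylaryl polyglycol ether emulsifier in water.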

Leptosphaeria nodorum = test: Example Q: in vivo test on Leptosphaeria nodorum (glume blotch in wheat/protective); settings: Parastagonospora nodorum, 192 h, wheat, protective, assessment 8 days after inoculation, read-out: % Wirkungsgrad
Protocol: Solvent: 49 parts by weight N,N-dimethylacetamide Emulsifier: 1 part by weight alkylaryl polyglycol ethers For the preparation of a suitable active substance preparation, 1 part by weight of active substance is mixed with the stated quantities of solvent and emulsifier and the concentrate is diluted to the desired concentration with water. For the testing for protective activity, young plants are sprayed with the active substance preparation at the stated application dosage. After drying of the spray coating, the plants are sprayed with spores with a spore suspension of Leptosphaeria nodorum. […] 8 days after the inoculation, the assessment takes place.

Septoria tritici = test: Example R: in vivo test on Septoria tritici (leaf blotch in wheat/protective); settings: Zymoseptoria tritici, 504 h, wheat, protective, 1000 ppm active substance, assessed 21 days after inoculation, read-out: % Wirkungsgrad (activity level)
Procedure, shortened: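 Protective test: young wheat plants sprayed with compound in N,N-dimethylacetamide/alkylaryl polyglycol ether emulsifier diluted in water, dried, then inoculated with Septoria tritici spore suspension. Disease assessed 21 days after inoculation.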

[6] = test system: Fusarium nivale (var. majus); test: whole plant or invertebrate; format: in vivo; settings: Microdochium nivale, in Triticum aestivum, 120 h, read-out: % Wirkungsgrad (activity level)
Fusarium graminearum [7] = test: whole plant or invertebrate; format: in vivo; settings: in Hordeum vulgare, 120 h, read-out: % Wirkungsgrad (activity level)
Cochliobolus miyabeanus = test: Example X: in vivo test on Cochliobolus miyabeanus (brown spot disease, rice/protective); settings: Bipolaris oryzae, 96 h, read-out: % Activity level
Fusarium graminearum [8] = test: microbe, parasite or virus in culture; format: cell-based
[9] = Fusarium proliferatum growth, OD 620, 5 days, read-out: % Inhibition des Pilzwachstums bei 50 μM
[10] = Fusarium proliferatum, 5 days at 20° C., HPLC-MS/MS, read-out: % Inhibition der FB1 produktion bei 50 μM

Row | SMILES | pest or weed control at 500 ppm (Peronospora parasitica) | pest or weed control at 500 ppm (Sphaerotheca fuliginea [2]) | inhibition at 50 µM (Fusarium proliferatum; [9]) | inhibition at 50 µM (Fusarium proliferatum; [10]) | chromatographic logP (physchem) | pest or weed control at 500 ppm (Pyrenophora teres) | pest or weed control at 500 ppm (Sphaerotheca fuliginea [4]) | pest or weed control at 500 ppm (Alternaria solani) | pest or weed control at 250 ppm (Rhizoctonia solani) | also measured
1 | CC(C)n1cc(-c2ccnc3ccccc23)c(-c2ccc(F)cc2)n1 [Compound 44] | 78% | 98% | 33% | 100% | 2.24 | – | – | – | – | pest or weed control at 500 ppm (Botrytis cinerea [1]): 71%; pest or weed control at 500 ppm (Puccinia recondita): 71%; pest or weed control at 500 ppm [3]: 81%
2 | N#Cc1ccccc1Cn1cc(-c2ccncc2)c(-c2ccc(F)cc2)n1 [Compound 136] | 94% | 91% | – | – | 1.49 | 71% | 73% | 95% | 97% | pest or weed control at 250 ppm (Pyricularia oryzae): 80%
3 | CCC(=O)Nc1cc(-c2cn(C3CCCCO3)nc2-c2ccc(F)cc2)ccn1 (centres unmarked) [Compound 19] | 100% | – | 68% | 100% | 2.32 | 83% | – | – | – | –
4 | CC(C)n1cc(-c2ccncc2)c(-c2ccc(F)cc2)n1 [Compound 89] | – | – | – | – | 1.16 | – | 88% | 89% | 92% | pest or weed control at 100 ppm (Plasmopara viticola): 73%; pest or weed control at 100 ppm (Venturia inaequalis): 100%; pest or weed control at 250 ppm (Botrytis cinerea [5]): 100%; pest or weed control at 1000 ppm (Leptosphaeria nodorum): 83%; pest or weed control at 1000 ppm (Septoria tritici): 100%; pest or weed control at 1000 ppm [6]: 92%; pest or weed control at 1000 ppm (Fusarium graminearum [7]): 100%; pest or weed control at 250 ppm (Cochliobolus miyabeanus): 85%
5 | C=CCNc1nccc(-c2cn(CC(C)C)nc2-c2ccc(F)cc2)n1 [Compound 150] | 100% | 96% | – | – | 2.46 | 86% | 93% | 95% | – | inhibition at 50 µM (Fusarium graminearum [8]; 72 h, read-out: % Inhibition des Pilzwachstums bei 50 μM): 97%; inhibition at 50 µM (Fusarium graminearum [8]; 168 h, read-out: % Inhibition der DON/AcDON produktion bei 50 μM): 99%
